Assay results reported in patent publication US20250018048A1, “FLUCONAZOLE-COX INHIBITOR HYBRIDS: A DUAL-ACTING CLASS OF ANTIFUNGAL AZOLES” (Ramot at Tel-Aviv University Ltd., priority 2022, published 2025).
In brackets after ≈: the same amount, converted by molar mass.

Key:
Assay type in all cases: cell-based
[1] = test system: C. albicans 742 (erg11ΔΔ/erg3ΔΔ mutant C. albicans strain); test: MIC80 broth double-dilution assay, strain lacking CYP51; conditions: 24 h; for MIC80: Candida albicans, read-out: MIC80 against C. albicans 742; for MIC80 against C. albicans 742: YPAD medium, 30° C., erg11ΔΔ/erg3ΔΔ mutant lacking CYP51
Summary of the method: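 Double-knockout C. albicans and parent SN152 grown in YPAD at 30 °C with serial double dilutions from 64 to 0.003 μg/mL; OD600 read after 24 h (growth followed over 48 h). MIC80 taken as >80% OD600 reduction versus no-drug wells; triplicate, two independent experiments.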

C. albicans ATCC 24433 = test: MIC80 broth double-dilution assay; conditions: YPAD medium, 30° C., 24 h; for MIC80: Candida albicans, ATCC24433, read-out: MIC80 against C. albicans 24433
Summary of the method: (§1)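 Broth microdilution per CLSI M27-A3 with minor modifications: serial double dilutions of hybrids (64 to 0.003 μg/mL) in YPAD, inoculum from PBS suspension at 1×10^−3 OD600 diluted 1:100. Growth 24 h at 30° C; MIC80 = concentration reducing OD600 by >80% versus no-drug wells.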

C. albicans ATCC 90028 = test: MIC80 broth double-dilution assay; conditions: YPAD medium, 30° C., 24 h; for MIC80: Candida albicans, ATCC90028, read-out: MIC80 against C. albicans 90028
Summary of the method: as §1

C. albicans P-87 = test: MIC80 broth double-dilution assay; conditions: YPAD medium, 30° C., 24 h; for MIC80: Candida albicans, P87, read-out: MIC80 against C. albicans P-87
Summary of the method: as §1

C. albicans SC5314 = test: MIC80 broth double-dilution assay; conditions: YPAD medium, 30° C., 24 h; for MIC80: Candida albicans, SC5314, read-out: MIC80 against C. albicans SC5314
Summary of the method: as §1

C. dubliniensis T-99 = test: MIC80 broth double-dilution assay; conditions: YPAD medium, 30° C., 24 h; for MIC80: Candida dubliniensis, T99, read-out: MIC80 against C. dubliniensis T-99
Summary of the method: as §1

[2] = test system: C. parapsilosis ATCC 22019; test: MIC80 broth double-dilution assay; conditions: YPAD medium, 30° C., 24 h; for MIC80: Lodderomyces parapsilosis, ATCC22019, read-out: MIC80 against C. parapsilosis 22019
Summary of the method: as §1

C. tropicalis 660 = test: MIC80 broth double-dilution assay; conditions: YPAD medium, 30° C., 24 h; for MIC80: Candida tropicalis, 660, read-out: MIC80 against C. tropicalis 660
Summary of the method: as §1

C. guilliermondii T-47 = test: MIC80 broth double-dilution assay; conditions: YPAD medium, 30° C., 24 h; for MIC80: Meyerozyma guilliermondii, T47, read-out: MIC80 against C. guilliermondii T-47
Summary of the method: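 Broth double dilution following modified CLSI M27-A3, YPAD medium, compound range 64 to 0.003 μg/mL; inoculum from 1×10^−3 OD600 suspension diluted 1:100. After 24 h at 30 °C, MIC80 taken as lowest concentration reducing OD600 by >80% versus no-drug control; triplicates, fluconazole and voriconazole as controls.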

[3] = test system: erg11ΔΔ/erg3ΔΔ mutant C. albicans; test: Growth curve analysis of C. albicans lacking CYP51; conditions: YPAD, 30° C., 48 h
Experimental: The clinically used FLC and VOR act primarily by preventing ergosterol biosynthesis via inhibition of CYP51. Analysis was done to determine whether fungal growth inhibition by the hybrids required the presence of the ERG11 gene that encodes for CYP51. The antifungal activities of hybrids 1 and 5 and of FLC and VOR were determined against an erg11ΔΔ/erg3ΔΔ mutant C. albicans strain and against C. albicans SN152 from which this double knockout strain was derived (Table S2). […] Yeast growth was followed at OD600 over 48 h in 96-well plates containing serial double dilutions of the tested hybrids.
Cells of erg11ΔΔ/erg3ΔΔ mutant C. albicans were grown in YPAD media at 30° C. and treated with different concentrations of the tested hybrids. Growth was measured by recording the OD600 values every 40 minutes over a 48-h course on an automated plate reader.
Growth curve analyses: Growth curves were determined using the double-dilution method in 96-well plates. Starter cultures were streaked from glycerol stock onto YPAD agar plates and grown for 24 h at 30° C. Colonies were suspended in 1 mL PBS and diluted to 1×10^−3 OD600 and then diluted 1:100 into fresh medium. Hybrids dissolved in DMSO were added to YPAD broth (32 μL stock solution in 1218 μL of YPAD broth), and serial double dilutions of hybrids in YPAD were prepared in flat-bottomed 96-well microplates (Corning) to enable testing of concentrations ranging from 64 μg/mL to 1 μg/mL. Control wells with yeast cells but no drug (100% growth) and blank wells containing only YPAD (0% growth) were prepared. An equal volume (100 μL) of yeast suspensions in YPAD broth was added to each well with the exceptions of the blank wells. Growth was determined at 30° C. by measuring the OD600 using a plate reader (Infinite M200 PRO, Tecan) every 40 minutes over 48 h. Each concentration was tested in triplicate, and results were confirmed by two independent sets of experiments. FLC and VOR were used as control drugs.

[4] = entire range of concentrations (64 to 1 μg/mL)

OC(Cn1cncn1)(Cn1cncn1)c1ccc(F)cc1F [FLC, fluconazole]
MIC80 [1]: > 64 mg/L | MIC80 against C. albicans 742 [1]: inactive | MIC80 (C. albicans ATCC 24433): 1 mg/L (≈ 3.27 µM) | MIC80 (C. albicans ATCC 90028): 0.5 mg/L (≈ 1.63 µM) | MIC80 (C. albicans P-87): 1 mg/L (≈ 3.27 µM) | MIC80 (C. albicans SC5314): 0.5 mg/L (≈ 1.63 µM) | MIC80 (C. dubliniensis T-99): 0.25 mg/L (≈ 0.816 µM) | MIC80 [2]: 1 mg/L (≈ 3.27 µM) | MIC80 (C. tropicalis 660): 1 mg/L (≈ 3.27 µM) | MIC80 (C. guilliermondii T-47): 4 mg/L (≈ 13.1 µM) | Effect on growth (OD600) of the double knockout mutant [3, 4]: no significant effect on the growth

C[C@H](C(=O)NC[C@](O)(Cn1cncn1)c1ccc(F)cc1F)c1ccc(-c2ccccc2)c(F)c1 [Hybrid 5]
MIC80 against C. albicans 742 [1]: 64 mg/L (≈ 133 µM) | MIC80 against C. albicans 24433 (C. albicans ATCC 24433): 0.03 mg/L (≈ 0.0624 µM) | MIC80 against C. albicans 90028 (C. albicans ATCC 90028): 0.015 mg/L (≈ 0.0312 µM) | MIC80 against C. albicans P-87 (C. albicans P-87): 0.015 mg/L (≈ 0.0312 µM) | MIC80 against C. albicans SC5314 (C. albicans SC5314): 0.007 mg/L (≈ 0.0146 µM) | MIC80 against C. dubliniensis T-99 (C. dubliniensis T-99): 0.5 mg/L (≈ 1.04 µM) | MIC80 against C. tropicalis 660 (C. tropicalis 660): 0.06 mg/L (≈ 0.125 µM) | MIC80 against C. guilliermondii T-47 (C. guilliermondii T-47): 0.5 mg/L (≈ 1.04 µM) | Effect on growth (OD600) of the double knockout mutant [3, 4]: clear dose-dependent reduction in growth

C[C@@H](c1ncncc1F)[C@](O)(Cn1cncn1)c1ccc(F)cc1F [VOR, voriconazole, reference compound]
MIC80 [1]: > 64 mg/L | MIC80 against C. albicans 742 [1]: inactive | MIC80 (C. albicans ATCC 24433): 0.015 mg/L (≈ 0.0429 µM) | MIC80 (C. albicans ATCC 90028): 0.007 mg/L (≈ 0.02 µM) | MIC80 (C. albicans P-87): 0.007 mg/L (≈ 0.02 µM) | MIC80 (C. albicans SC5314): 0.007 mg/L (≈ 0.02 µM) | MIC80 (C. dubliniensis T-99): 0.03 mg/L (≈ 0.0859 µM) | MIC80 [2]: 0.015 mg/L (≈ 0.0429 µM) | MIC80 (C. tropicalis 660): 0.12 mg/L (≈ 0.344 µM) | MIC80 (C. guilliermondii T-47): 0.06 mg/L (≈ 0.172 µM) | Effect on growth (OD600) of the double knockout mutant ([3]; at 64 μg/mL, the highest concentration tested): Modest reduction in growth

CC(C)Cc1ccc([C@H](C)C(=O)NC[C@](O)(Cn2cncn2)c2ccc(F)cc2F)cc1 [Hybrid 1]
MIC80 against C. albicans 742 [1]: 64 mg/L (≈ 145 µM) | MIC80 against C. albicans 24433 (C. albicans ATCC 24433): 0.007 mg/L (≈ 0.0158 µM) | MIC80 against C. albicans 90028 (C. albicans ATCC 90028): 0.003 mg/L (≈ 0.00678 µM) | MIC80 against C. albicans P-87 (C. albicans P-87): 0.003 mg/L (≈ 0.00678 µM) | MIC80 against C. albicans SC5314 (C. albicans SC5314): 0.003 mg/L (≈ 0.00678 µM) | MIC80 against C. dubliniensis T-99 (C. dubliniensis T-99): 0.06 mg/L (≈ 0.136 µM) | MIC80 against C. parapsilosis 22019 [2]: 0.007 mg/L (≈ 0.0158 µM) | MIC80 against C. tropicalis 660 (C. tropicalis 660): 0.03 mg/L (≈ 0.0678 µM) | MIC80 against C. guilliermondii T-47 (C. guilliermondii T-47): 0.06 mg/L (≈ 0.136 µM) | Effect on growth (OD600) of the double knockout mutant [3, 4]: clear dose-dependent reduction in growth
